Test results from article PMC7076013 (Scientific Reports, 2020).

System: A375 cells
Assay: Intracellular ROS/RNS (DHR), A375
Format: cell-based, human
Conditions: A375, 48 h; untreated 22.3 ± 5
Protocol: Given that analogue 5 is designed for NO release, the intracellular release of nitric oxide and production of reactive oxygen species (ROS)/reactive nitrogen species (RNS) was measured by means of redox-sensitive dyes — 4-amino-5-methylamino-2′,7′-difluorofluorescein diacetate (DAF) and dihydrorhodamine-123 (DHR) — after exposure for 48 h (Fig. 11). […] It is well documented that highly intensified production of ROS/RNS is connected with extreme cell damage and consequent cell death, whereas moderate ROS production is involved in the regulation of intracellular processes often involved in cell cycle arrest, proliferation, and differentiation[63],[64]. Apart from the moderate intracellular NO release, it was important to evaluate whether 5 released NO extracellularly. The production of NO from a nitrate group is a three-electron reduction process that can happen by a number of possible 2e^– and 1e^– pathways, commonly involving the initial liberation of a nitrite. A common method of detecting the release of NO in the extracellular compartment is the detection of nitrite ions by the Griess reaction, which quantifies the nitrite resulting from the oxidation of NO[66],[67]. […] Introduction of a nitrate moiety was also found to be beneficial in the case of rofecoxib. […]

4-[4-(methylnitrooxy)phenyl]-3-(1,2-dicarba-closo-dodecaboranyl)furan-2(5 H)-one [Compound 5]
ROS/RNS production, mean fluorescence (DHR): 32.67 ± 8
